{
  "source": "patent US20130289019A1",
  "about": "“METHODS OF TREATING BEHAVIORIAL AND/OR MENTAL DISORDERS” (AMAZING GRACE, INC., priority 2012, published 2013)",
  "test_system": "rats (NAc infusion)",
  "test": "swim test scores during bilateral fluoxetine infusion in the NAc",
  "type": "in vivo, rat",
  "data": [
    {"compound": "CNCCC(Oc1ccc(C(F)(F)F)cc1)c1ccccc1", "note": "(centres unmarked) [Fluoxetine]", "values": [
      {"measurement": "Swimming + Climbing (total escape attempts), FLU", "setting": "0.2 mM bilateral in NAc, fluoxetine on Day 2 (Ringer Day 3)", "value": "54 ± 30"},
      {"measurement": "Swimming + Climbing (total escape attempts), FLU", "setting": "0.2 mM bilateral in NAc, fluoxetine on Day 3 (Ringer Day 2)", "value": "74 ± 13"},
      {"measurement": "Swimming + Climbing (total escape attempts), FLU", "setting": "0.2 mM bilateral in NAc, on Day 2 or Day 3 (combined)", "value": "66 ± 12"},
      {"measurement": "Swimming + Climbing (total escape attempts), FLU", "setting": "0.5 mM bilateral in NAc, fluoxetine on Day 2 (Ringer Day 3)", "value": "51 ± 9"},
      {"measurement": "Swimming + Climbing (total escape attempts), FLU", "setting": "0.5 mM bilateral in NAc, fluoxetine on Day 3 (Ringer Day 2)", "value": "81 ± 9"},
      {"measurement": "Swimming + Climbing (total escape attempts), FLU", "setting": "0.75 mM bilateral in NAc, fluoxetine on Day 2 (Ringer Day 3)", "value": "58 ± 11"},
      {"measurement": "Swimming + Climbing (total escape attempts), FLU", "setting": "0.75 mM bilateral in NAc, fluoxetine on Day 3 (Ringer Day 2)", "value": "73 ± 11"},
      {"measurement": "Swimming + Climbing (total escape attempts), FLU", "setting": "0.75 mM bilateral in NAc, on Day 2 or Day 3 (combined)", "value": "67 ± 7"}
    ]}
  ]
}
